Measurements published in ChEMBL document CHEMBL1131857, “Quinolizidinyl derivatives of 5,11-dihydro-6H-pyrido[2,3-b][1,4]benzodiazepin-6-one as ligands for muscarinic receptors” (Bioorg Med Chem Lett, 1999).

How the values were obtained:
[1] = target: Muscarinic acetylcholine receptor M3 (Rattus norvegicus, UniProt P08483); test: Displacement of [3H]methylscopolamine binding to muscarinic M3 receptor in submaxillary salivary glands of rats.; assay type: tissue-based, Salivary gland
[2] = target: T1, Muscarinic acetylcholine receptor M2 (Rattus norvegicus, UniProt P10980); test: Displacement of [3H]methylscopolamine binding to muscarinic M2 receptor in rat heart.
T1 sequence (P10980 whole entry): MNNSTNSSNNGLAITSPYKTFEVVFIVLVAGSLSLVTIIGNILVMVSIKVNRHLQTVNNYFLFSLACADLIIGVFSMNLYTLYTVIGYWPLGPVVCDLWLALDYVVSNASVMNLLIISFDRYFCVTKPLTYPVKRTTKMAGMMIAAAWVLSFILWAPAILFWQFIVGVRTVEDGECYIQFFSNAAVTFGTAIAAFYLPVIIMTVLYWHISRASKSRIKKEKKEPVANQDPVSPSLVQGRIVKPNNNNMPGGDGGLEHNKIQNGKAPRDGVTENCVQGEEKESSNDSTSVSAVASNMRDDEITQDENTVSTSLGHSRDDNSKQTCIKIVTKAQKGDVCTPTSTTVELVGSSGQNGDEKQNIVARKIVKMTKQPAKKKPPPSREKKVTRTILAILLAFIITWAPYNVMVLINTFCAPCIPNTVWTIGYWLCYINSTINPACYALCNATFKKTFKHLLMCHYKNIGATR

[3] = target: T2, Muscarinic acetylcholine receptor M1 (Rattus norvegicus, UniProt P08482); test: Displacement of [3H]pirenzepine binding to muscarinic M1 receptor in brain cortex of rat.; assay type: tissue-based
T2 sequence (P08482 whole entry): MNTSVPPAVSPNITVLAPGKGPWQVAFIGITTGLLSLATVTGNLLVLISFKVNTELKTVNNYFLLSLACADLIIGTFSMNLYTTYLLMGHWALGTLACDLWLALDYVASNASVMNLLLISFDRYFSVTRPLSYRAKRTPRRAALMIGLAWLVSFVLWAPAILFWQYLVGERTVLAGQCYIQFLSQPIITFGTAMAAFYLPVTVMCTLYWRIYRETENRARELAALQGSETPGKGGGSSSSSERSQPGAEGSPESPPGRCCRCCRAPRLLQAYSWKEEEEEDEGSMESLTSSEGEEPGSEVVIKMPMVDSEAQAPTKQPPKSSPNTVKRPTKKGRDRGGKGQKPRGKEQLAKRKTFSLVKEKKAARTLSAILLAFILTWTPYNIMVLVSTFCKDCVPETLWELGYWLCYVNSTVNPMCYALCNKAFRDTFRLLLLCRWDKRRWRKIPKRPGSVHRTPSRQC

Sequence of Muscarinic acetylcholine receptor M3 (P08483 whole entry): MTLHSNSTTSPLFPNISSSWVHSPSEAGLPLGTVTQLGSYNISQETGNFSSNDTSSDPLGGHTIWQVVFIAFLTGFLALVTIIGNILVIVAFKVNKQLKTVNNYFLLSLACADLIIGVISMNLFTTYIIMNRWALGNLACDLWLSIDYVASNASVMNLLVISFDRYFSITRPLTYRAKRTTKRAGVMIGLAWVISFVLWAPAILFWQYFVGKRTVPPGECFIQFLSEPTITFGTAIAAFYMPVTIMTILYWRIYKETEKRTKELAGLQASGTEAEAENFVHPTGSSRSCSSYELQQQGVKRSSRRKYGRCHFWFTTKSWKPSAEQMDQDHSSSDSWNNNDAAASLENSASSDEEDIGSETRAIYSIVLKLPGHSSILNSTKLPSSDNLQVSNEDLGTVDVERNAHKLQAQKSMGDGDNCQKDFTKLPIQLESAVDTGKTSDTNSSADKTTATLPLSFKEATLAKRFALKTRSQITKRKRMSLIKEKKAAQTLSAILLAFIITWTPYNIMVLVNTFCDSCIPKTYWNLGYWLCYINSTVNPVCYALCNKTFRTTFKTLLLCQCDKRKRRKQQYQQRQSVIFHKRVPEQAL

IC50 [1] | IC50 [2] | IC50 [3] | Compound
760 nM | 760 nM | 10 nM | O=C1Nc2cccnc2N(C(=S)CC2CCCN3CCCC[C@@H]23)c2ccccc21 (some centres undefined)
> 10000 nM | 6800 nM | 650 nM | O=C1Nc2ccccc2N(C(=O)CC2CCCN3CCCCC23)c2ncccc21 (centres undefined)
800 nM | 1000 nM | 28 nM | O=C1Nc2cccnc2N(C(=O)CNCC2CCCN3CCCCC23)c2ccccc21 (centres undefined)
3500 nM | 1900 nM | 40 nM | O=C1Nc2cccnc2N(C(=O)C[C@H]2CCCN3CCCCC23)c2ccccc21 (some centres undefined)
> 10000 nM | 6000 nM | 110 nM | O=C1Nc2cccnc2N(C(=O)C[C@@H]2CCCN3CCCCC23)c2ccccc21 (some centres undefined)
760 nM | 760 nM | 10 nM | O=C1Nc2cccnc2N(C(=O)CSCC2CCCN3CCCCC23)c2ccccc21 (centres undefined)
1300 nM | 2400 nM | 8 nM | Cc1cc(C(=O)c2ccccc2)ccc1NC(=O)CC1CCCN2CCCC[C@H]12 (some centres undefined)

Compound | IC50 [1] | IC50 [2] | IC50 [3]
O=C1c2ccccc2-n2c(nc3cccnc32)CN1C[C@@H]1CCCN2CCCC[C@H]12 | > 10000 nM | 12000 nM | 1200 nM
